Source: patent US11052100B2, “Stable nicotinamide riboside composition and preparation method thereof” (BONTAC BIO-ENGINEERING (SHENZHEN) CO., LTD, priority 2018, dated 2021)

Assay: Stability accelerated test (purity of nicotinamide riboside by HPLC)
Format: physicochemical
Details: 25° C.±2° C., relative humidity 60% ±10%, average of 3 samples
Experimental: The stability accelerated test was carried out on test subjects (nicotinamide riboside and the nicotinamide riboside composition prepared in Embodiment 1 to Embodiment 4 of the present invention) in accordance with the provisions of the Guidelines for Drug Stability Test in the Chinese Pharmacopoeia 2015. The test method was: taking 3 samples from each test subject in an environment with a temperature of 25° C.±2° C. and a relative humidity of 60% ±10%, taking samples once at the end of the 0th month, 1st month, 2nd month, 3rd month, and 6th month during the test period, detecting the purity of nicotinamide riboside by HPLC, and calculating an average value of 3 parts. In the table, 1, 2, 3 and 4 in the first column represent Embodiment 1, Embodiment 2, Embodiment 3 and Embodiment 4, respectively, NR represents nicotinamide riboside, KGM represents konjac glucomannan, and RA represents rebaudioside A.

Q: Which “purity of nicotinamide riboside by HPLC, 0th month” value (end of 0th month) does the source give for `NC(=O)c1ccc[n+]([C@@H]2O[C@H](CO)[C@@H](O)[C@H]2O)c1` [NR, Nicotinamide riboside] here?
A: 99.6%

Q: What about the “purity of nicotinamide riboside by HPLC, 1st month” value (end of 1st month) of the same molecule?
A: 10.6%

Q: And the “purity of nicotinamide riboside by HPLC, 2nd month” value (end of 2nd month)?
A: 5.1%

Q: What about the “purity of nicotinamide riboside by HPLC, 3rd month” value (end of 3rd month) of the same molecule?
A: 3.4%

Q: What about the “purity of nicotinamide riboside by HPLC, 6th month” value (end of 6th month) of the same molecule?
A: 3.2%
